Measured values as given in patent publication US7745575B1 (Cellpep Pharma Inc., priority 2004, dated 2010).
Bridge positions count the residues as written; N and C are the ends. Peptide text beside a SMILES is read from it.

Assay: toxicity in vivo, LD50 after intracerebroventricular injection
Details: mouse, icv or intrathecal, 20 g C57/BL6 mice
Procedure: Groups of six to eight mice per dose were injected with 5 μl peptide solution containing 0.1% (w/v) bovine serum albumin and 0.9% (w/v) NaCl. The LD50 values are set out in Table 5.

| Structure (SMILES) | LD50 [µg/kg] |
| --- | --- |
| CC[C@H](C)[C@@H]1NC(=O)[C@H](CCCCN)NC(=O)[C@@H](NC(=O)[C@H](CCCCN)NC(=O)[C@@H](NC(=O)[C@H](CC(N)=O)NC(=O)[C@@H](NC(=O)[C@@H](NC(=O)[C@@H](NC(=O)CN)C(C)C)[C@@H](C)CC)[C@@H](C)CC)C(C)C)CSSC[C@@H]2NC(=O)[C@H](CCCCN)NC(=O)CNC(=O)[C@H](Cc3ccccc3)NC(=O)[C@H](CCCNC(=N)N)NC(=O)[C@H](CCSC)NC(=O)CNC(=O)[C@H](C)NC(=O)[C@H](CCCCN)NC(=O)[C@H](CCCCN)NC(=O)[C@@H]3CSSC[C@@H](C(=O)N[C@H](C(=O)N4CCC[C@H]4C(=O)N[C@@H](CCCCN)C(N)=O)[C@@H](C)O)NC(=O)[C@H](Cc4c[nH]cn4)NC(=O)[C@H](CSSC[C@H](NC(=O)[C@H](CCC(N)=O)NC(=O)[C@H](CCCNC(=N)N)NC(=O)[C@H](CO)NC1=O)C(=O)N[C@@H](CC(C)C)C(=O)N[C@@H](CCC(=O)O)C(=O)N1CCC[C@H]1C(=O)N3)NC(=O)[C@H](CCCCN)NC(=O)CNC(=O)[C@H](CC(N)=O)NC(=O)[C@H](CCSC)NC2=O [OsK1-NH2] | 3.5 |
| CC[C@H](C)[C@@H]1NC(=O)[C@H](CCCCN)NC(=O)[C@@H](NC(=O)[C@H](CCCCN)NC(=O)[C@@H](NC(=O)[C@H](CC(N)=O)NC(=O)[C@@H](NC(=O)[C@@H](NC(=O)[C@@H](NC(=O)CN)C(C)C)[C@@H](C)CC)[C@@H](C)CC)C(C)C)CSSC[C@@H]2NC(=O)[C@H](CCCCN)NC(=O)CNC(=O)[C@H](Cc3ccccc3)NC(=O)[C@H](CCCNC(=N)N)NC(=O)[C@H](CCSC)NC(=O)CNC(=O)[C@H](C)NC(=O)[C@H](CC(=O)O)NC(=O)[C@H](CCCCN)NC(=O)[C@@H]3CSSC[C@@H](C(=O)N[C@H](C(=O)N4CCC[C@H]4C(=O)N[C@@H](CCCCN)C(=O)O)[C@@H](C)O)NC(=O)[C@H](Cc4c[nH]cn4)NC(=O)[C@H](CSSC[C@H](NC(=O)[C@H](CCC(N)=O)NC(=O)[C@H](CCCNC(=N)N)NC(=O)[C@H](CO)NC1=O)C(=O)N[C@@H](CC(C)C)C(=O)N[C@@H](CCC(=O)O)C(=O)N1CCC[C@H]1C(=O)N3)NC(=O)[C@H](CCCCN)NC(=O)CNC(=O)[C@H](CC(N)=O)NC(=O)[C@H](CCSC)NC2=O [[D^20]-OsK1] (H-GVIINVKCKISRQCLEPCKDAGMRFGKCMNGKCHCTPK-OH; disulfide 8-28, 14-33, 18-35) | 4.5 |
| CC[C@H](C)[C@@H]1NC(=O)[C@H](CCCCN)NC(=O)[C@@H](NC(=O)[C@H](CCCCN)NC(=O)[C@@H](NC(=O)[C@H](CC(N)=O)NC(=O)[C@@H](NC(=O)[C@@H](NC(=O)[C@@H](NC(=O)CNC(C)=O)C(C)C)[C@@H](C)CC)[C@@H](C)CC)C(C)C)CSSC[C@@H]2NC(=O)[C@H](CCCCN)NC(=O)CNC(=O)[C@H](Cc3ccccc3)NC(=O)[C@H](CCCNC(=N)N)NC(=O)[C@H](CCSC)NC(=O)CNC(=O)[C@H](C)NC(=O)[C@H](CC(=O)O)NC(=O)[C@H](CCCNC(=N)N)NC(=O)[C@@H]3CSSC[C@@H](C(=O)N[C@H](C(=O)N4CCC[C@H]4C(=O)N[C@@H](CCCCN)C(=O)O)[C@@H](C)O)NC(=O)[C@H](Cc4c[nH]cn4)NC(=O)[C@H](CSSC[C@H](NC(=O)[C@H](CCC(N)=O)NC(=O)[C@H](CCCCN)NC(=O)[C@H](CO)NC1=O)C(=O)N[C@@H](CC(C)C)C(=O)N[C@@H](CCCCN)C(=O)N1CCC[C@H]1C(=O)N3)NC(=O)[C@H](CCCCN)NC(=O)CNC(=O)[C@H](CC(N)=O)NC(=O)[C@H](CCSC)NC2=O (Ac-GVIINVKCKISKQCLKPCRDAGMRFGKCMNGKCHCTPK-OH; disulfide 8-28, 14-33, 18-35) | 17.5 |
| CC[C@H](C)[C@@H]1NC(=O)[C@H](CCCCN)NC(=O)[C@@H](NC(=O)[C@H](CCCCN)NC(=O)[C@@H](NC(=O)[C@H](CC(N)=O)NC(=O)[C@@H](NC(=O)[C@@H](NC(=O)[C@@H](N)C(C)C)[C@@H](C)CC)[C@@H](C)CC)C(C)C)CSSC[C@@H]2NC(=O)[C@H](CCCCN)NC(=O)CNC(=O)[C@H](Cc3ccccc3)NC(=O)[C@H](CCCNC(=N)N)NC(=O)[C@H](CCSC)NC(=O)CNC(=O)[C@H](C)NC(=O)[C@H](CCCCN)NC(=O)[C@H](CCCCN)NC(=O)[C@@H]3CSSC[C@@H](C(=O)N[C@H](C(=O)N4CCC[C@H]4C(=O)N[C@@H](CCCCN)C(N)=O)[C@@H](C)O)NC(=O)[C@H](Cc4c[nH]cn4)NC(=O)[C@H](CSSC[C@H](NC(=O)[C@H](CCC(N)=O)NC(=O)[C@H](CCCNC(=N)N)NC(=O)[C@H](CO)NC1=O)C(=O)N[C@@H](CC(C)C)C(=O)N[C@@H](CCC(=O)O)C(=O)N1CCC[C@H]1C(=O)N3)NC(=O)[C@H](CCCCN)NC(=O)CNC(=O)[C@H](CC(N)=O)NC(=O)[C@H](CCSC)NC2=O [[Δ^1]-OsK1-NH2] (H-VIINVKCKISRQCLEPCKKAGMRFGKCMNGKCHCTPK-NH2; disulfide 7-27, 13-32, 17-34) | 7 |
| CC[C@H](C)[C@@H]1NC(=O)[C@H](CCCCN)NC(=O)[C@@H](NC(=O)[C@H](CCCCN)NC(=O)[C@@H](NC(=O)[C@H](CC(N)=O)NC(=O)[C@@H](NC(=O)[C@@H](NC(=O)[C@@H](NC(=O)CN)C(C)C)[C@@H](C)CC)[C@@H](C)CC)C(C)C)CSSC[C@@H]2NC(=O)[C@H](CCCCN)NC(=O)CNC(=O)[C@H](Cc3ccccc3)NC(=O)[C@H](CCCNC(=N)N)NC(=O)[C@H](CCSC)NC(=O)CNC(=O)[C@H](C)NC(=O)[C@H](CC(=O)O)NC(=O)[C@H](CCCCN)NC(=O)[C@@H]3CSSC[C@@H](C(=O)O)NC(=O)[C@H](Cc4c[nH]cn4)NC(=O)[C@H](CSSC[C@H](NC(=O)[C@H](CCC(N)=O)NC(=O)[C@H](CCCNC(=N)N)NC(=O)[C@H](CO)NC1=O)C(=O)N[C@@H](CC(C)C)C(=O)N[C@@H](CCCCN)C(=O)N1CCC[C@H]1C(=O)N3)NC(=O)[C@H](CCCCN)NC(=O)CNC(=O)[C@H](CC(N)=O)NC(=O)[C@H](CCSC)NC2=O (H-GVIINVKCKISRQCLKPCKDAGMRFGKCMNGKCHC-OH; disulfide 8-28, 14-33, 18-35) | 800 |
| CC[C@H](C)[C@@H]1NC(=O)[C@H](CCCCN)NC(=O)[C@@H](NC(=O)[C@H](CCCCN)NC(=O)[C@@H](NC(=O)[C@H](CC(N)=O)NC(=O)[C@@H](NC(=O)[C@@H](NC(=O)[C@@H](N)C(C)C)[C@@H](C)CC)[C@@H](C)CC)C(C)C)CSSC[C@@H]2NC(=O)[C@H](CCCCN)NC(=O)CNC(=O)[C@H](Cc3ccccc3)NC(=O)[C@H](CCCNC(=N)N)NC(=O)[C@H](CCSC)NC(=O)CNC(=O)[C@H](C)NC(=O)[C@H](CC(=O)O)NC(=O)[C@H](CCCCN)NC(=O)[C@@H]3CSSC[C@@H](C(=O)N[C@H](C(=O)N4CCC[C@H]4C(=O)N[C@@H](CCCCN)C(=O)O)[C@@H](C)O)NC(=O)[C@H](Cc4c[nH]cn4)NC(=O)[C@H](CSSC[C@H](NC(=O)[C@H](CCC(N)=O)NC(=O)[C@H](CCCNC(=N)N)NC(=O)[C@H](CO)NC1=O)C(=O)N[C@@H](CC(C)C)C(=O)N[C@@H](CCCCN)C(=O)N1CCC[C@H]1C(=O)N3)NC(=O)[C@H](CCCCN)NC(=O)CNC(=O)[C@H](CC(N)=O)NC(=O)[C@H](CCSC)NC2=O (H-VIINVKCKISRQCLKPCKDAGMRFGKCMNGKCHCTPK-OH; disulfide 7-27, 13-32, 17-34) | 3 |
